This is an account of results in patent US8165517B2, “Methods for identifying inhibitors of vascular injury” (The Trustees of the University of Pennsylvania, priority 2005, dated 2012).

Assay [1] relates to mouse aortic smooth muscle cell (mASMC). As to the kind of experiment: mASMC proliferation by MTT assay. Type of assay: cell-based. Particulars: PGD2 1 and 5 μM, 24 hr, confluent, quiescent SMC. The procedure: FIG. 6 depicts the effect of PGD2 on mASMC proliferation. Confluent, quiescent SMC were treated with varies concentrations of PGD2. Cell proliferation was determined by MTT assay at 24 hr. Values are mean±S.E.M. (*: P<0.005, by One-way ANOVA and t test, n=6).
The effect of PGD2 on mASMC proliferation was determined by MTT assay.
A general note: Tetrazolium dyes change colour on reduction, which living cells bring about.

In assay [2] the test system is MAP Kinase (MAPK), phosphorylated ERK1/2, in mASMC. The experiment in a line: MAPK activation in mASMC by Western analysis of SMC lysate. The format is cell-based, mouse. The procedure: FIG. 7 depicts the effect of PGD2 on MAPK activation in mASMC. Confluent, quiescent SMC were treated with 1 μM PGD2 for varies timepoints. Cells were lysed and the lysate was analyzed for phosphorylated ERK1/2 (upper panel) and MARK (lower panel) by Western analysis, using antibodies to phosphotyrosine −ERK1/2 and ERK1/2, respectively.
The effect of PGD2 on activation of MAP Kinase (MAPK) was tested by Western analysis of SMC lysate.

As to `CCCCC[C@H](O)/C=C/[C@H]1C(=O)C[C@H](O)[C@@H]1C/C=C\CCCC(=O)O` [PGD2, Prostaglandin D2], in assay [1], the “effect on mASMC proliferation” value is “significantly promote mASMC proliferation”. For the same compound, in assay [2] (1 μM PGD2, after 15 min), the “level of phosphorylated-MAPK1/2 over time” value is listed as “returned to control levels”. Besides, the “activation of MAP Kinase (phosphorylated-MAPK1/2, 44 and 42 kDa)” value in assay [2] (1 μM PGD2, as early as 10 min) is reported as “induction of a phosphorylated-MAPK1/2”.
